# Conditions: instrument: DT, single field, calibrated with Agilent tune mix (Agilent)
collision cross section (N2) ([M+H]+) [Å²],collision cross section (N2) ([M-H]-) [Å²],collision cross section (N2) ([M+Na]+) [Å²],collision cross section (N2) ([M+H-H2O]+) [Å²],Structure (SMILES)
159.6,151.17,,,O=C(O)CN(CCN(CC(=O)O)CC(=O)O)CC(=O)O [EDTA]
244.7,,,,CC(=O)SCCNC(=O)CCNC(=O)[C@H](O)C(C)(C)COP(=O)(O)OP(=O)(O)OC[C@H]1O[C@@H](n2cnc3c(N)ncnc32)[C@H](O)[C@@H]1OP(=O)(O)O [Acetyl-CoA]
,172.11,177.6,,Cc1cn([C@H]2C[C@H](O)[C@@H](COP(=O)(O)OP(=O)(O)O)O2)c(=O)[nH]c1=O [Deoxythymidine 5'-diphosphate]
,183.85,,,CC(C)=CCC/C(C)=C/CC/C(C)=C/COP(=O)(O)OP(=O)(O)O [Farnesyl pyrophosphate]
,118.42,,,"O=C(O)c1cccc(O)c1O [2,3-Dihydroxybenzoic acid]"
,200.58,202,,C[C@H](CCC(=O)NCC(=O)O)[C@H]1CC[C@H]2[C@@H]3[C@H](O)C[C@@H]4C[C@H](O)CC[C@]4(C)[C@H]3C[C@H](O)[C@]12C [Glycocholic acid]
,132.07,,,CC(C)C(=O)NCC(=O)O [Isobutyrylglycine]
,145.32,157.5,,O=P(O)(O)OC1O[C@H](CO)[C@@H](O)[C@H](O)[C@H]1O (stereo partly drawn) [a-D-Galactose 1-phosphate]
,148.87,,,CCCCCCCCCCC(=O)O [Undecanoic Acid]
,123.66,,,CC(O)(CC(=O)O)CC(=O)O [3-Hydorxy-3-methylglutaric acid]
,,145.8,,O=C([O-])[C@H](O)[C@@H](O)[C@H](O)[C@H](O)CO [D-gluconate]
,,142.7,,CC(=O)OP(=O)(O)O [Acetyl phosphate]
199.1,194.92,,,Cc1cc2nc3c(=O)[nH]c(=O)nc-3n(C[C@H](O)[C@H](O)[C@H](O)COP(=O)(O)O)c2cc1C [Flavin mononucleotide]
,205.39,207.4,,C[C@H](CCC(=O)NCCS(=O)(=O)O)[C@H]1CC[C@H]2[C@@H]3[C@H](O)C[C@@H]4C[C@H](O)CC[C@]4(C)[C@H]3CC[C@]12C [Taurochenodeoxycholate]
,129.64,142.5,,OC[C@@H](O)[C@@H](O)[C@H](O)[C@@H](O)CO [D-Sorbitol]
,156,167.5,,O=c1ccn([C@H]2C[C@H](O)[C@@H](COP(=O)(O)O)O2)c(=O)[nH]1 [Deoxyuridine monophosphate]
,152.58,,,CCCCCCCCCCCC(=O)O [Dodecanoic acid]
,,,133.8,O=C(O)CCCCC1CCSS1 (configuration not stated) [Thioctic acid]
137.8,134.74,,,O=C(O)C(O)Cc1ccccc1 (racemic) [DL-3-Phenyllactic acid]
,124.86,,,O=P(O)(O)OCC(O)CO (configuration not stated) [Glycerol 3-phosphate]
,,,159.7,C[C@]12CC[C@@H]3c4ccc(O)cc4CC[C@H]3[C@@H]1CC[C@@H]2O [beta-Estradiol]
131.9,,,,NCCCCNCCCN [Spermidine]
,154.36,156.2,,COc1ccc2[nH]cc(C[C@H](N)C(=O)O)c2c1 [5-methoxytryptophan]
149.6,140.25,,,C[C@H](NC(=O)CC[C@H](N)C(=O)O)C(=O)O [5-L-Glutamyl-L-alanine]
150.9,,,,Cc1ncc(COP(=O)(O)O)c(CN)c1O [Pyridoxamine 5'-phosphate]

Structure (SMILES),collision cross section (N2) ([M+H]+) [Å²],collision cross section (N2) ([M-H]-) [Å²],collision cross section (N2) ([M+Na]+) [Å²],collision cross section (N2) ([M+H-H2O]+) [Å²]
C[C@]12CC[C@@H](O)C[C@@H]1CC[C@@H]1[C@@H]2CC[C@]2(C)C(=O)CC[C@@H]12 [Androsterone],,,,166.6
